Results reported in the NIST ThermoML archive (doi:10.1021/acs.jced.8b01193).
± gives the expanded uncertainty stated by the source.

What was measured:
[1] = Crystal; DSC
[2] = Molar enthalpy of transition or fusion; details: Crystal; DSC

Triple point temperature [1]: 425.95 ± 0.93 K
Molar enthalpy of transition or fusion [2]: 16.3 ± 0.5 kJ/mol
Structure (SMILES): O=C1CCCCCCCCCCCN1 [2-azacyclotridecanone]
